Assay results from patent US20230357099A1, “PYRAZOLO [3,4-B] PYRIDINE-4-CARBOXAMIDE NITRIFICATION INHIBITOR” (EUROCHEM ANTWERPTEN, priority 2020, published 2023).

Assays:
[1] = system: Nitrososphaera viennensis; assay: Nitrification inhibition assay on Nitrososphaera viennensis (nitrite, Griess); type: cell-based, Nitrososphaera viennensis EN76T; details: Nitrososphaera viennensis; 2.5 µM compound; structural variants outside formula (I); read-out: Relative nitrification (%) by Nitrososphaera viennensis treated with 2.5 µM compound
Procedure, shortened: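 N. viennensis EN76T cultures in FWM (pH 7.5, NH4Cl-supplemented), 5× concentrated, treated with compounds at 2.5 µM final (0.25% DMSO) and incubated 24 h at 42 °C. Nitrite measured by Griess absorbance at 540 nm against a standard curve. Relative nitrification normalized between DMSO (no compound) and 100 µM PTIO controls.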

[2] = system: ABIL (ammonia-binding liquid inoculum), nitrifying microbial enrichment containing both AOA and AOB; assay: Nitrification inhibition assay on ABIL (ammonium consumption); type: cell-based; details: 10 µM compound; structural variants outside formula (I); read-out: Relative nitrification (%) by ABIL treated with 10 µM compound

Row | SMILES | activity at 2.5 µM [1] | activity at 10 µM [2]
1 | Cc1nn(C)c2ncc(C(=O)NCC3CN(CC(C)C)CCO3)cc12 (stereo not shown) [Example 21] | 100% | 90%
2 | FC(F)(F)c1c[nH]c(C2CCN(Cc3cccc4cn[nH]c34)CC2)n1 [Example 158] | 100% | 100%
3 | Cc1cc(C)nc(-n2nc(C)c3c(C(F)(F)F)cc(-c4cccnc4)nc32)n1 [Example 86] | 94% | 100%
4 | Cc1nn(C)c2ncc(NC(=O)CCC3CCCO3)cc12 (stereo not shown) [Example 76] | 100% | 100%
5 | Cc1nc2c(c(C)nn2C)c(C)c1CCC(=O)NC(C)C1CCCO1 (stereo not shown) [Example 57] | 97% | 100%
6 | CS(=O)(=O)c1ccc(-c2noc(-c3cccc4[nH]ncc34)n2)cc1 [Example 135] | 100% | 100%
7 | CC(C)n1ncc2cc(NC(=O)Cc3ccc(F)cc3)cnc21 [Example 56] | 100% | 100%
8 | CC(C)n1ncc2cc(NC(=O)CCS(=O)(=O)c3ccc(Cl)cc3)cnc21 [Example 28] | 100% | 92%
9 | O=C(CC1CCCCCC1)c1n[nH]c2ccccc12 [Example 119] | 100% | 99%
10 | Cc1nc2c(cnn2C(C)C)cc1C(=O)NC(C)C1CC1 (stereo not shown) [Example 31] | 99% | 93%
11 | O=C(NC1CCc2ccccc21)c1n[nH]c2ccccc12 (stereo not shown) [Example 132] | 97% | 100%
12 | CCNC(=O)c1cccc(NC(=O)c2n[nH]c3ccccc23)c1 [Example 122] | 95% | 100%
13 | Cc1n[nH]c2ncc(CNCCc3ccsc3)cc12 [Example 40] | 93% | 98%
14 | Cc1nc2c(c(C)nn2C)c(C)c1CCC(=O)N1CCOCC1C (stereo not shown) [Example 75] | 100% | 100%
15 | CC(CCc1ccco1)NC(=O)c1cnc2c(cnn2Cc2ccccc2)c1 (stereo not shown) [Example 51] | 91% | 100%
16 | Cc1nc2c(c(C)nn2C)c(C)c1CCC(=O)N1CC(C)OC(C)C1 (stereo not shown) [Example 46] | 90% | 99%
17 | Cc1nc2c(cc1C(=O)NC(C)C1CCCO1)c(C)nn2C (stereo not shown) [Example 48] | 99% | 100%
18 | COCCCCCNC(=O)Nc1ccc2[nH]ncc2c1 [Example 128] | 100% | 100%
19 | O=S(=O)(Nc1cccc2[nH]ncc12)N1CCCCC1 [Example 113] | 100% | 98%
20 | CC(=O)NC(CC(=O)Nc1cnc2c(cnn2C(C)C)c1)c1ccc(Cl)cc1 (stereo not shown) [Example 23] | 100% | 91%
21 | CC(CNC(=O)c1cccc2[nH]ncc12)CC1(C)OCCO1 (stereo not shown) [Example 110] | 100% | 97%
22 | CC(C)n1ncc2cc(NC(=O)C3(C)CC3(Cl)Cl)cnc21 (stereo not shown) [Example 50] | 92% | 100%
23 | CC(C)n1ncc2cc(NC(=O)CCc3cc4ccccc4o3)cnc21 [Example 65] | 100% | 100%
24 | Cc1cccc(C)c1OCC(=O)Nc1cnc2c(cnn2C(C)C)c1 [Example 71] | 94% | 100%
25 | c1ccc(N2CCOCC2)c(CNc2ccc3[nH]ncc3c2)c1 [Example 105] | 100% | 94%
26 | COc1ccc(OCCC(=O)Nc2n[nH]c3ccccc23)cc1 [Example 121] | 100% | 100%
27 | Cc1nc2cc(NC(=O)c3cnc4c(cnn4C(C)C)c3)ccc2o1 [Example 44] | 100% | 99%
28 | CC1(C)CN(C(=O)c2n[nH]c3ccccc23)CCS1(=O)=O [Example 117] | 100% | 99%
29 | CCC(CC)c1nnc(NC(=O)c2n[nH]c3ccccc23)s1 [Example 103] | 100% | 91%
